In the supplement of paper PMC10307832:

Tests used:
Assay in all cases: relative viability (nuclei count vs DMSO), 5 days (fraction); higher = more cells survive
Zebularine + Decitabine = compound: O=c1ncccn1[C@@H]1O[C@H](CO)[C@@H](O)[C@H]1O [Zebularine] + Nc1ncn([C@H]2C[C@H](O)[C@@H](CO)O2)c(=O)n1 [Decitabine] (partner 2 µM)
Outline: (§1)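 Lung cancer cell lines were pin-tool dosed in 1536-well plates on the day after seeding, with either a lone drug or a fixed anchor-drug dose plus five library-drug doses (not always all listed) in √10 steps. Nuclei were counted on 4× images after 5 days. Relative viability is the ratio of treated-well to vehicle-well nuclei counts, with each value a median of duplicate plates.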

Zebularine + Dasatinib = compound: O=c1ncccn1[C@@H]1O[C@H](CO)[C@@H](O)[C@H]1O [Zebularine] + Cc1nc(Nc2ncc(C(=O)Nc3c(C)cccc3Cl)s2)cc(N2CCN(CCO)CC2)n1 [Dasatinib] (partner 0.075 µM)
Outline: as §1

BI-D1870 + Vorinostat = compound: CC(C)CCN1c2nc(Nc3cc(F)c(O)c(F)c3)ncc2N(C)C(=O)C1C [BI-D1870] + O=C(CCCCCCC(=O)Nc1ccccc1)NO [Vorinostat] (partner 1 µM)
Outline: as §1

Zebularine + Vorinostat = compound: O=c1ncccn1[C@@H]1O[C@H](CO)[C@@H](O)[C@H]1O [Zebularine] + O=C(CCCCCCC(=O)Nc1ccccc1)NO [Vorinostat] (partner 1 µM)
Outline: as §1

| Cell Line | relative viability (Zebularine + Decitabine; first compound 1 µM) | relative viability (Zebularine + Decitabine; first compound 3.162 µM) | relative viability (Zebularine + Decitabine; first compound 10 µM) | relative viability (Zebularine + Decitabine; first compound 31.62 µM) | relative viability (Zebularine + Decitabine; first compound 100 µM) | relative viability (Zebularine + Dasatinib; first compound 1 µM) | relative viability (Zebularine + Dasatinib; first compound 3.162 µM) | relative viability (Zebularine + Dasatinib; first compound 10 µM) | relative viability (Zebularine + Dasatinib; first compound 31.62 µM) | relative viability (Zebularine + Dasatinib; first compound 100 µM) | relative viability (BI-D1870 + Vorinostat; first compound 0.04 µM) | relative viability (BI-D1870 + Vorinostat; first compound 0.1265 µM) | relative viability (BI-D1870 + Vorinostat; first compound 0.4 µM) | relative viability (BI-D1870 + Vorinostat; first compound 1.265 µM) | relative viability (BI-D1870 + Vorinostat; first compound 4 µM) | relative viability (Zebularine + Vorinostat; first compound 1 µM) | relative viability (Zebularine + Vorinostat; first compound 3.162 µM) | relative viability (Zebularine + Vorinostat; first compound 10 µM) | relative viability (Zebularine + Vorinostat; first compound 31.62 µM) | relative viability (Zebularine + Vorinostat; first compound 100 µM) |
| --- | --- | --- | --- | --- | --- | --- | --- | --- | --- | --- | --- | --- | --- | --- | --- | --- | --- | --- | --- | --- |
| LCLC-103H | 0.801 | 0.727 | 0.713 | 0.719 | 0.666 | 0.485 | 0.479 | 0.251 | 0.475 | 0.44 | 0.886 | 0.719 | 0.786 | 0.755 | 0.535 | 0.812 | 0.697 | 0.706 | 0.77 | 0.75 |
| EKVX | 0.576 | 0.378 | – | 0.304 | 0.339 | 0.577 | 0.498 | – | 0.575 | 0.573 | 0.779 | 0.707 | 0.64 | 0.814 | 0.703 | 0.772 | 0.745 | – | 0.819 | 0.635 |
| LXF-289 | 0.362 | 0.331 | 0.382 | 0.345 | 0.24 | 0.233 | 0.187 | 0.184 | 0.175 | 0.154 | 0.681 | 0.738 | 0.695 | 0.695 | 0.527 | 0.853 | 0.809 | 0.635 | 0.667 | 0.254 |
| ABC-1 | 1.13 | 0.68 | 0.888 | 0.577 | 0.495 | 0.637 | 0.352 | 0.454 | 0.435 | 0.351 | 1.2 | 1.01 | 1.07 | 1.2 | 0.535 | 1.15 | 1.02 | 0.701 | 0.835 | 0.575 |
| NCI-H650 | 0.28 | 0.285 | 0.31 | 0.298 | 0.297 | 0.462 | 0.486 | 0.403 | 0.397 | 0.268 | 0.478 | 0.407 | 0.413 | 0.413 | 0.386 | 0.398 | 0.376 | 0.343 | 0.297 | 0.225 |
| NCI-H1650 | 0.347 | 0.305 | 0.335 | 0.378 | 0.269 | 0.384 | 0.366 | 0.324 | 0.342 | 0.312 | 0.613 | 0.425 | 0.646 | 0.595 | 0.577 | 0.645 | 0.57 | 0.506 | 0.748 | 0.373 |
| NCI-H2085 | 0.543 | 0.506 | 0.487 | 0.576 | 0.508 | 0.209 | 0.226 | 0.243 | 0.222 | 0.246 | 0.828 | 0.733 | 0.709 | 0.781 | 0.509 | 0.804 | 0.835 | 0.662 | 0.755 | 0.465 |
| NCI-H1793 | 0.471 | 0.523 | 0.292 | 0.328 | 0.218 | 0.479 | 0.373 | – | 0.25 | 0.176 | 0.914 | 0.718 | 0.615 | 1.04 | 0.606 | 0.819 | 0.895 | 0.41 | 0.448 | 0.328 |
| LC-2-ad | 0.83 | 0.796 | 0.554 | 0.72 | 0.329 | 0.731 | 0.494 | 0.226 | 0.491 | 0.34 | 0.696 | 0.646 | 0.701 | 0.705 | 0.56 | 0.759 | 0.691 | 0.527 | 0.644 | 0.324 |
| COR-L 105 | 0.642 | 0.696 | 0.523 | 0.648 | 0.647 | 0.33 | 0.294 | 0.33 | 0.367 | 0.369 | 0.804 | 0.837 | 0.77 | 0.875 | 0.765 | 1.38 | 0.898 | 0.734 | 0.945 | 0.619 |
| NCI-H1355 | 0.34 | 0.329 | 0.334 | 0.314 | 0.28 | 0.757 | 0.746 | 0.525 | 0.617 | 0.458 | 0.74 | 0.613 | 0.657 | 0.731 | 0.608 | 0.692 | 0.585 | 0.479 | 0.544 | 0.372 |
| H3255 | 0.687 | 0.615 | – | 0.65 | 0.665 | 0.402 | 0.365 | 0.324 | 0.409 | 0.368 | 0.88 | 0.816 | 0.761 | 0.889 | 0.802 | 0.793 | 0.864 | – | 0.795 | 0.75 |
| NCI-H1993 | 0.639 | 0.602 | 0.506 | 0.601 | 0.703 | 0.658 | 0.609 | 0.48 | 0.498 | 0.496 | 0.763 | 0.689 | 0.767 | 1.1 | 0.631 | 0.73 | 0.763 | 0.754 | 0.741 | 0.559 |
| NCI-H1734 | 0.445 | 0.828 | 0.421 | 0.516 | 0.295 | 0.546 | 0.486 | 0.333 | 0.297 | 0.281 | 0.805 | 0.744 | 0.78 | 0.779 | 0.617 | 0.983 | 0.717 | 0.425 | 0.401 | 0.253 |
| HOP-62 | 0.205 | 0.205 | 0.209 | 0.164 | 0.178 | 0.729 | 0.711 | 0.421 | 0.462 | 0.253 | 0.737 | 0.669 | 0.602 | 0.703 | 0.464 | 0.717 | 0.474 | 0.365 | 0.203 | 0.22 |
